The test system of series [1] is MV411 cells. As to the kind of experiment: MTS cytotoxicity assay against MV411 cells. The format is cell-based. The conditions noted are these: Homo sapiens, MV4-11. The procedure: The obtained compounds were tested in biological experiments to measure their potency in inhibiting the growth of AML cells and in their degradation of CDK9. These measurements are reported as half-maximum growth inhibitory and half-maximum degradation concentrations, IC50s and DC50s, respectively. Maximum percent degradation (Dmax) values were also obtained during the CDK9 degradation assessments. The common MTS assay was used to acquire the IC50 values, while the DC50 values were obtained using an automated western blot experiment. These values are presented in Table 2, along with pIC50 (log(nM IC50)) to more accurately reflect the differences/lack thereof in in vitro cytotoxicity. The notation “N:N*” represents the number of linker atoms on each side of the rigid triazole ring for a given degrader. Predicted log D values, calculated using the ChemAxon […], are also provided for each degrader. To characterize the physicochemical properties of the new degrader series, two additional assays were performed: a kinetic aqueous solubility assay and the chromatographic log D experiment described earlier. Aqueous solubility is shown in μM while experimentally determined log D is shown as log k′80. Details regarding the execution of each experiment are provided below.

Series [2] concerns MOLM13 cells. As to the kind of experiment: Cytotoxicity against MOLM13 cells. The format is cell-based. The conditions noted are these: MOLM13 cells, read-out: IC50. The source says:
(§1) Through amide coupling using I-ethyl-3-carbodiimide hydrochloride (EDC.HCl), the alkynyl derivatives of 4.16, 4.29 and 4.30 were synthesized. Using these VIP152-derivatives, degraders 4.31, 4.33 and 4.34 were synthesized using click chemistry. Degrader 4.32 was also synthesized using amide coupling conditions with (1-[Bis([…])methylene]-1H-1,2,3-triazolo[4,5-b]pyridinium 3-oxide hexafluorophosphate (HATU) and the carboxylic acid 4.28. Scheme 7 illustrates the synthesis of this initial series. The series was evaluated for cytotoxicity against MOLM13 cells (IC50) and for their CDK9 degradation potency (DC50). The results are provided in Table 3.

Series [3] addresses T1, CDK9 (Homo sapiens, UniProt P50750+Q96SW2).
T1 construct: endogenous in cells
The experiment in a line: CDK9 degradation potency (DC50) of VIP152-based degraders. The format is cell-based. The conditions noted are these: VIP152-based series.
Excerpt: as §1

Series [4] in a line: Chromatographic log D determination (log k′80). Type of series: physicochemical. The settings on record: chromatographic log D, PLRP-S column, pH 7.72. Here is the method: Chromatographic Log D Determination. Test samples were prepared from 10 mM stock solutions in DMSO, to make 122 μM solutions in acetonitrile. Retention times were determined on a Shimadzu High Performance Liquid Chromatography (HPLC) system with Agilent PLRP-S column, 100 Å, 5 um particle size, 50×4.6 mm (part no.: PL1512-1500) with 1 mL/min flow rate. A 65 mM aqueous solution of ammonium acetate was prepared in water and diluted with acetonitrile to give 0.1% ammonium acetate 20:80 acetonitrile solution with pH 7.72. Eluents were detected with UV spectrophotometry at 337 nm. As a standard set, the retention times of β-estradiol, nifedipine, quinoline, phenol and 2-nitrophenol were determined (log k′80) and the dead time was extrapolated based on the reported log k′80 values originally reported by Caron et. al (log k′80*). The average value of the dead time for the standard set was 0.3001 minutes. Therefore, for consistency, 0.3 minutes was used as the dead time for all test samples. Experiments were performed in triplicate with a maximum percent standard deviation of 6.85%.

A short description of series [5]: Kinetic solubility assay. The conditions noted are these: for solubility at 1.5 h: Solubility (μM); for solubility at 1.5 h / Solubility: kinetic solubility, PBS pH 7.4.
Procedure: Kinetic Solubility Assay. Kinetic solubility (KS) was measured according to Millipore protocol PC2445 EN00. Test compounds were weighed and diluted with DMSO to 10 mM. From the stock solutions as well as blank (100% DMSO) was taken 17.5 μL and diluted to 500 μM with 332.5 μL of 100 mM phosphate Buffered Saline (PPBS) at pH 7.4 in a 96-well quartz plate. From the 500 μM solutions was taken 150 μL and dispensed into a 96-well Millipore filter plate (Product number: MSSLBPC10). In the quartz plate, serial dilutions were performed down to 0.5 μM using the 100 mM PBS solution, leaving 100 μL of each test sample at 11 different concentrations, representing standards. These steps were performed in triplicate, at minimum, for each test compound. Both plates were shaken on an orbital shaker at 150 rpm for 1.5 hours. The contents of the filter plate were filtered and 100 μL of the filtrate from each well was dispensed into the quartz plate containing standards. The quartz plate was then analyzed using a UV plate reader where absorbance was measured at the relevant wavelength for each compound. After blank subtraction, for each test sample, solubility was determined based on the optical density of filtered samples and the equations derived from the corresponding linear standard curve.
Setting [6] is: Homo sapiens, MOLM-13, cytotoxicity.
Where [7] appears, read: phosphate buffered saline, pH 7.4, aqueous buffer, kinetic from dmso stock.

SMILES strings stand for the structures. In brackets after ≈: the same amount, converted by molar mass. Several values for one entry are separate records, joined by “and”; a condition that tells them apart may be missing. Identical values can stand only once. Like-named read-outs stand apart in the source and are kept apart here. Some results are limits rather than exact numbers.

T1 sequence (P50750 whole entry): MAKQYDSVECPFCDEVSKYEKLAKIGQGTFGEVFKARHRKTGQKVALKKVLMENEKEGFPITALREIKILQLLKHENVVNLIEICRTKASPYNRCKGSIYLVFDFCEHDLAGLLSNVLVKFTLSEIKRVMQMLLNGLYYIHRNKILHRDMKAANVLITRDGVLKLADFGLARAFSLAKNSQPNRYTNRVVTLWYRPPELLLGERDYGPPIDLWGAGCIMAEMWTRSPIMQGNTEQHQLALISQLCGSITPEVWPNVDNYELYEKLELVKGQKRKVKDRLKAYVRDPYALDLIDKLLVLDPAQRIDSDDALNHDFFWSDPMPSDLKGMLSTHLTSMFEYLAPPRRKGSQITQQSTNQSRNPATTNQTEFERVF
T1 sequence (O60563 whole entry partner): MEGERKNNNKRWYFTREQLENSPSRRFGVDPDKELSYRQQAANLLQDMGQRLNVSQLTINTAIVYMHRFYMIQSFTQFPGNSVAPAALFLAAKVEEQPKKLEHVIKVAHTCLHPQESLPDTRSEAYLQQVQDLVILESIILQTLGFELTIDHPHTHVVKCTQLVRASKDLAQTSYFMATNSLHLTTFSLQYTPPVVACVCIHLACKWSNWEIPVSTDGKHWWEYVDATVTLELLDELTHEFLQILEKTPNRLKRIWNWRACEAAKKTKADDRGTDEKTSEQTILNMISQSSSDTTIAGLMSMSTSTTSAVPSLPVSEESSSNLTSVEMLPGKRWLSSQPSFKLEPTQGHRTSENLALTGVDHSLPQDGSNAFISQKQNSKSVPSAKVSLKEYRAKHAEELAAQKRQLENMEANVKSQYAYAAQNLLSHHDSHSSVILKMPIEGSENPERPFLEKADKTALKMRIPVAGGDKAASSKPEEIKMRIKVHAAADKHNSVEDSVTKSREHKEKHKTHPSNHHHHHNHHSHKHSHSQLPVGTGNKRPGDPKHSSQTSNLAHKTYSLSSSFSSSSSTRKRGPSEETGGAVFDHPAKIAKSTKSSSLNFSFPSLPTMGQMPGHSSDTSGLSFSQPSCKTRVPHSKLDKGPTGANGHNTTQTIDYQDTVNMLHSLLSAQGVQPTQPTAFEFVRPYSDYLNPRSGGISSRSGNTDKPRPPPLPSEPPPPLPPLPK
T1 sequence (Q96SW2 whole entry): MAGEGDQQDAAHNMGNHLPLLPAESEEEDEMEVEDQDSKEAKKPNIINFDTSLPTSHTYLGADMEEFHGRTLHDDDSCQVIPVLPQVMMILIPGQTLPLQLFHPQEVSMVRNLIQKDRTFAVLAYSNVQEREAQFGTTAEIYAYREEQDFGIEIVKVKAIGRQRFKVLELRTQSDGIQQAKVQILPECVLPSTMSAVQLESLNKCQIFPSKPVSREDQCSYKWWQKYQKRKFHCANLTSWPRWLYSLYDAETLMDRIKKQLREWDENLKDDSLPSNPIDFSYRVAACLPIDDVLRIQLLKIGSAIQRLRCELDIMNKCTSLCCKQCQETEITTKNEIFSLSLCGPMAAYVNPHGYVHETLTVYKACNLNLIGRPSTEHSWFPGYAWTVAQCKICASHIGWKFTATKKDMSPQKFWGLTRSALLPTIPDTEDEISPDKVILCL
T1 sequence (Q16531 whole entry partner): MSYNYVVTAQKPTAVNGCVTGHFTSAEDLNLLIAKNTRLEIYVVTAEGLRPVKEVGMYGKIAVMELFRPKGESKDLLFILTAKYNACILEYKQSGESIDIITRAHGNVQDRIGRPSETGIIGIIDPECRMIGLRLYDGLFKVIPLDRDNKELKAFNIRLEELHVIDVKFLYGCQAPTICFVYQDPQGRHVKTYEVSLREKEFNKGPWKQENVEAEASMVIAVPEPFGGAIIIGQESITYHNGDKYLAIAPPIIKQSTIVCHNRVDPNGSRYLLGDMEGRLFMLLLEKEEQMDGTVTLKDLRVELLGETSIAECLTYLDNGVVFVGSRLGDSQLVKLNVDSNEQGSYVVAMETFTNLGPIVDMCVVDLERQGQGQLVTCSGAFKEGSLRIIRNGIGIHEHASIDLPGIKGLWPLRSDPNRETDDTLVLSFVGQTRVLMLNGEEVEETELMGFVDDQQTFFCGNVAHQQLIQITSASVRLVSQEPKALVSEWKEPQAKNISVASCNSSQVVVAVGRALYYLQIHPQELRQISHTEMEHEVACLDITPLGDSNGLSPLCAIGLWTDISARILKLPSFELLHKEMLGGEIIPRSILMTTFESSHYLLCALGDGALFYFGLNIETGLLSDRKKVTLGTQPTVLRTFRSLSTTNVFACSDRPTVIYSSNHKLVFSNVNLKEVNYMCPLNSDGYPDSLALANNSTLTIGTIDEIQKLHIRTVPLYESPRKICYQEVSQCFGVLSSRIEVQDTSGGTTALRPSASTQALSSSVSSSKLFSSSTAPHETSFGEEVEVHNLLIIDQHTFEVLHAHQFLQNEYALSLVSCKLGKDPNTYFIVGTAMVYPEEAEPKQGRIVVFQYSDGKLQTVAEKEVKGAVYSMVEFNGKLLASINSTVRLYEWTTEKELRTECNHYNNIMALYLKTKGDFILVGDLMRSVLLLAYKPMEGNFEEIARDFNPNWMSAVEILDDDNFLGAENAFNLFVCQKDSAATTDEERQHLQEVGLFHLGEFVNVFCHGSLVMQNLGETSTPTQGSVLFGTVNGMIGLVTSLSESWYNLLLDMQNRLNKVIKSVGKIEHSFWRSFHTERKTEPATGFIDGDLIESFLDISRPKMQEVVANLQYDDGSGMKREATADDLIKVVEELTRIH

`O=C(NC1CCNCC1)c1n[nH]cc1NC(=O)c1c(Cl)cccc1Cl` [AT7519, 4-(2,6-dichlorobenzamido)-N-(piperidin-4-yl)-1H-pyrazole-3-carboxamide, reference compound] gave an EC50 in series [1] (Table 1, cytotoxicity MV411 cells) of 200 nM. In addition, the IC50 is 126 nM in series [1] (defined as log(nM IC50), MV411, read-out: pIC50 (converted)) and 119 nM in series [1] (growth inhibition, MV411 cells, MTS, read-out: IC50).

On to `COc1cc(F)ccc1-c1cc(Nc2cc(CS(C)(=O)=NC(=O)CCC(=O)N3CC(N4CCC(Cn5cc(COc6cccc7c6C(=O)N(C6CCC(=O)NC6=O)C7=O)nn5)CC4)C3)ccn2)ncc1F` (stereo not shown) [Compound 4.91], for which the IC50 in series [2] (setting [6]) is 590 nM. In series [3], the DC50 was determined as 260 nM. Moreover, the “logk′80” value in series [4] is reported as 0.09. Moreover, the concentration in solution in series [5] (setting [7]) (solubility at 1.5 h) came to 3.8 µM (≈ 3.78 µg/mL).

Take `COc1cc(F)ccc1-c1cc(Nc2cc(CS(C)(=O)=NC(=O)CN3CCC(c4cn(CC(=O)N5CCN(CC#Cc6cccc7c6C(=O)N(C6CCC(=O)NC6=O)C7=O)CC5)nn4)CC3)ccn2)ncc1F` (stereo not shown) [Compound 4.61, 2-(4-(1-(2-(4-(3-(2-(2,6-dioxopiperidin-3-yl)-1,3-dioxoisoindolin-4-yl)prop-2-yn-1-yl)piperazin-1-yl)-2-oxoethyl)-1H-1,2,3-triazol-4-yl)piperidin-1-yl)-N-(((2-((5-fluoro-4-(4-fluoro-2-methoxyphenyl)pyridin-2-yl)amino)pyridin-4-yl)methyl)(methyl)(oxo)-16-sulfaneylidene)acetamide]: the IC50 in series [2] (setting [6]) came out at 340 nM. Half-maximal degradation in series [3] (DC50) was put at 170 nM. Moreover, the solubility at 1.5 h in series [5] (setting [7]) was 1.8 µM (≈ 1.83 µg/mL).

Consider `COc1cc(F)ccc1-c1cc(Nc2cc(CS(C)(=O)=NC(=O)CN3CCC(N4CCC(C#Cc5ccc6c(c5)CN(C5CCC(=O)NC5=O)C6=O)CC4)CC3)ccn2)ncc1F` (stereo not shown) [Compound 4.103, 2-(4-{2-[2-(2,6-dioxopiperidin-3-yl)-1-oxo-2,3-dihydro-1H-isoindol-5-yl]ethynyl}-[1,4′-bipiperidin]-1′-yl)-N-{[(2-{[5-fluoro-4-(4-fluoro-2-methoxyphenyl)pyridin-2-yl]amino}pyridin-4-yl)methyl](methyl)oxo-26-sulfanylidene}acetamide], for which the IC50 in series [2] (cytotoxicity) turned out to be 120 nM. The “logk′80” value in series [4] stood at 0.15. In series [5], the “Solubility” value was 29 µM and 29.1 µM.

On to `COc1cc(F)ccc1-c1cc(Nc2cc(CS(C)(=O)=NC(=O)C3CCCN(Cc4cn(CC(=O)N5CCN(CCCc6cccc7c6C(=O)N(C6CCC(=O)NC6=O)C7=O)CC5)nn4)C3)ccn2)ncc1F` (stereo not shown) [Compound 4.74, 1-({1-[2-(4-{3-[2-(2,6-dioxopiperidin-3-yl)-1,3-dioxo-2,3-dihydro-1H-isoindol-4-yl]propyl}piperazin-1-yl)-2-oxoethyl]-1H-1,2,3-triazol-4-yl}methyl)-N-{[(2-{[5-fluoro-4-(4-fluoro-2-methoxyphenyl)pyridin-2-yl]amino}pyridin-4-yl)methyl](methyl)oxo-λ^6-sulfanylidene}piperidine-3-carboxamide], for which the “logk′80” value in series [4] was 0.15.

Consider `COc1cc(F)ccc1-c1cc(Nc2cc(CS(C)(=N)=O)ccn2)ncc1F` (racemic) [Compound 4.16, ((2-((5-fluoro-4-(4-fluoro-2-methoxyphenyl)pyridin-2-yl)amino)pyridin-4-yl)methyl)(imino)(methyl)4-sulfa-none, reference compound], for which the IC50 in series [2] (setting [6]) was 60 nM. In addition, the “logk′80” value in series [4] came to 0.15. For the same molecule, in series [5] (setting [7]), the solubility at 1.5 h came to 403 µM (≈ 163 µg/mL).

In the case of `COc1cc(F)ccc1-c1cc(Nc2cc(CS(C)(=O)=NC(=O)CN3CCN(Cc4cn(C5CN(c6cccc7c6C(=O)N(C6CCC(=O)NC6=O)C7=O)C5)nn4)CC3)ccn2)ncc1F` (stereo not shown) [Compound 4.50, 2-(4-((1-(1-(2-(2,6-dioxopiperidin-3-yl)-1,3-dioxoisoindolin-4-yl)azetidin-3-yl)-11H-1,2,3-triazol-4-yl)methyl)piperazin-1-yl)-N-(((2-((5-fluoro-4-(4-fluoro-2-methoxyphenyl)pyridin-2-yl)amino)pyridin-4-yl)methyl)(methyl)(oxo)-16-sulfaneylidene)acetamide], the IC50 in series [2] (setting [6]) was 1540 nM. This molecule returned a DC50 in series [3] of 930 nM. Besides, in series [5], the “Solubility” value amounted to 13.9 µM (≈ 12.8 µg/mL). Moreover, in series [5] (setting [7]), the solubility at 1.5 h was about 15 µM (≈ 13.8 µg/mL).

Regarding `COc1cc(F)ccc1-c1cc(Nc2cc(CS(C)(=O)=NC(=O)CCCCc3cn(CCCOc4cccc5c4C(=O)N(C4CCC(=O)NC4=O)C5=O)nn3)ccn2)ncc1F` (stereo not shown) [Compound 4.31, 5-(1-(3-((2-(2,6-dioxopiperidin-3-yl)-1,3-dioxoisoindolin-4-yl)oxy)propyl)-1H-1,2,3-triazol-4-yl)-N-(((2-((5-fluoro-4-(4-fluoro-2-methoxyphenyl)pyridin-2-yl)amino)pyridin-4-yl)methyl)(methyl)(oxo)-16-sulfaneylidene)pentanamide], the IC50 in series [2] (setting [6]) amounted to 170 nM. In addition, the “logk′80” value in series [4] was 0.17. The same molecule registered a solubility at 1.5 h in series [5] (setting [7]) of under 5 µM.

With `COc1cc(F)ccc1-c1cc(Nc2cc(CS(C)(=O)=NC(=O)CCCCCCCCCCNC(=O)CNc3cccc4c3C(=O)N(C3CCC(=O)NC3=O)C4=O)ccn2)ncc1F` (stereo not shown) [Compound 4.32, 11-(2-((2-(2,6-dioxopiperidin-3-yl)-1,3-dioxoisoindolin-4-yl)amino)acetamido)-N-(((2-((5-fluoro-4-(4-fluoro-2-methoxyphenyl)pyridin-2-yl)amino)pyridin-4-yl)methyl)(methyl)(oxo)-16-sulfaneylidene)undecanamide], in series [2] (setting [6]), the IC50 worked out at 140 nM. In addition, in series [3], half-maximal degradation (DC50) was put at 120 nM. In series [4], the “logk′80” value was determined as 0.28.

Turning to `COc1cc(F)ccc1-c1cc(Nc2cc(CS(C)(=O)=NC(=O)C3CCCN(Cc4cn(CC5CCN(c6cccc7c6C(=O)N(C6CCC(=O)NC6=O)C7=O)CC5)nn4)C3)ccn2)ncc1F` (stereo not shown) [Compound 4.77, 1˜ {[1-({1-[2-(2,6-dioxopiperidin-3-yl)-1,3-dioxo-2,3-dihydro-1H-isoindol-4-yl]piperidin-4-yl}methyl)-1H-1,2,3-triazol-4-yl]methyl}-N-{[(2-{[5-fluoro-4-(4-fluoro-2-methoxyphenyl)pyridin-2-yl]amino}pyridin-4-yl)methyl](methyl)oxo-λ^6-sulfanylidene}piperidine-3-carboxamide], the IC50 in series [2] (setting [6]) turned out to be 640 nM. Further, the DC50 in series [3] came out at 260 nM. In series [5] (setting [7]), this molecule came in with a solubility at 1.5 h of 8.9 µM (≈ 8.46 µg/mL).

Regarding `COc1cc(F)ccc1-c1cc(Nc2cc(CS(C)(=O)=NC(=O)CN3CCC(N4CCN(CC#Cc5ccc6c(c5)CN(C5CCC(=O)NC5=O)C6=O)CC4)CC3)ccn2)ncc1F` (stereo not shown) [Compound 4.104, 2-[4-(4-{3-[2-(2,6-dioxopiperidin-3-yl)-1-oxo-2,3-dihydro-1H-isoindol-5-yl]prop-2-yn-1-yl}piperazin-1-yl)piperidin-1-yl]-N-{[(2-{[5-fluoro-4-(4-fluoro-2-methoxyphenyl)pyridin-2-yl]amino}pyridin-4-yl)methyl](methyl)oxo-16-sulfanylidene}acetamide], the IC50 in series [2] (setting [6]) was over 1000 nM. The IC50 in series [2] (cytotoxicity) turned out to be 1100 nM. In series [5] (setting [7]), the kinetic solubility at 1.5 h was over 50 µM and the concentration in solution (solubility at 1.5 h) was 51.6 µM (≈ 46.1 µg/mL).

Turning to `COc1cc(F)ccc1-c1cc(Nc2cc(CS(C)(=O)=NC(=O)CCc3cn(CCCOc4cccc5c4C(=O)N(C4CCC(=O)NC4=O)C5=O)nn3)ccn2)ncc1F` (stereo not shown) [Compound 4.33, 3-(1-(3-((2-(2,6-dioxopiperidin-3-yl)-1,3-dioxoisoindolin-4-yl)oxy)propyl)-1H-1,2,3-triazol-4-yl)-N-(((2-((5-fluoro-4-(4-fluoro-2-methoxyphenyl)pyridin-2-yl)amino)pyridin-4-yl)methyl)(methyl)(oxo)-16-sulfaneylidene)propenamide], the IC50 in series [2] (setting [6]) stood at 190 nM. Further, it took 170 nM to reach half-maximal degradation in series [3] (DC50). Besides, the “logk′80” value in series [4] is 0.15.

The term EC50 denotes the concentration needed to bring the measured effect to its halfway point. A low value points to higher potency in that assay. A word on the DC50: it is the midpoint of the concentration-degradation curve. For orientation: solubility means the concentration that dissolves in the medium under given conditions. A high value points to a readily soluble substance. In general, Solubility refers to how much of the substance goes into solution per volume. Read a low Solubility as a poorly soluble substance. Usually kinetic solubility stands for the concentration staying in solution when a stock, usually in DMSO, is diluted into the medium.

These data come from US20250236607A1, “CYCLIN-DEPENDENT KINASE 9 (CDK9) DEGRADERS AND METHODS OF USING THEREOF” (OHIO STATE INNOVATION FOUNDATION, priority 2022, published 2025).
